From US12102686B2, “Delivery systems and methods for reactive hydroxyl-containing compounds” (priority 2018, dated 2024)

Experiment: Free curcumin stability and consumption in the presence of AAPH (absorbance at 420 nm, HPLC)
Format: physicochemical
Procedure: Periodic samples were collected and read at 420 nm using a Cary 50 UV-Vis Microplate Reader spectroscopy instrument to monitor absorbance of solution over 24 hours.

## COc1cc(/C=C/C(=O)CC(=O)/C=C/c2ccc(O)c(OC)c2)ccc1O [Curcumin]
50 μg/mL curcumin in 0.1% (w/v) Tween 80 PBS (pH 7.4), 37° C., no AAPH
  time curcumin was stable in aqueous solution (no significant change in absorbance, no precipitation): over 24 hours
10 mM AAPH
  time after which the amount of curcumin decreases to 20%: 4 h
10 mM AAPH solution, within the first 8 hours
  curcumin consumed: 90%
100 mM AAPH
  time after which the amount of curcumin decreases to 20%: 0.333 h
  time of finality of curcumin consumption, experimental: 8 h
100 mM AAPH solution, within the first hour
  curcumin consumed: 90%
Versus demethoxycurcumin and bisdemethoxycurcumin, FIG. 3
  curcuminoid consumption susceptibility by AAPH (HPLC peak): diminished at a faster rate
